Test results reported in PMC12669672, “Structural insights into selective and dual antagonism of EP2 and EP4 prostaglandin receptors” (The EMBO Journal, 2025).
Several values for one entry are separate records, joined by “and”; a condition that tells them apart may be missing. Equal entries are not always repeated. Blank lines part the entries; values can stand above or below the compound they belong to.

Assays:
EP4 S73A = molecular target: T1, EP4 S73A (Homo sapiens, UniProt P35408, S73A); assay: GloSensor cAMP assay, antagonism of PGE2-induced cAMP; format: cell-based; conditions: for cAMP activity (∆pIC50 from EP4 WT): Grapiprant, S73A; for ΔpIC50: PGE2 0.5 nM, pIC50 mutant - pIC50 WT, mean
T1 construct: The full-length EP2 or EP4 was cloned into the pcDNA3.1 vector; FLAG (N); expressed in transfected cells; host or cells: AD293 cells
T1 sequence (P35408 whole entry S73A): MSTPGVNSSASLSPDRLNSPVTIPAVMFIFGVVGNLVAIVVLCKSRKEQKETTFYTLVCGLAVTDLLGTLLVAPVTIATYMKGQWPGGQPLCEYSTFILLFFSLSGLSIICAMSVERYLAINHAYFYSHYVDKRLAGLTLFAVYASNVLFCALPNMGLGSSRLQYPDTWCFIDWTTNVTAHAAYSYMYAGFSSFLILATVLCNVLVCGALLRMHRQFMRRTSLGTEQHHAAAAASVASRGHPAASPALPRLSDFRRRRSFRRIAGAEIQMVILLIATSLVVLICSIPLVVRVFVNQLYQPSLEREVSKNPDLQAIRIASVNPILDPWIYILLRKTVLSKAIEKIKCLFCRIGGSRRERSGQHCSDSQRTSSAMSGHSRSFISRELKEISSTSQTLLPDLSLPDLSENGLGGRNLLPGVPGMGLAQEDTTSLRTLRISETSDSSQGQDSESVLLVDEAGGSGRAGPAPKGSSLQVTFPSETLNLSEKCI

[1] = molecular target: T2, constitutively active EP4 S73A (Homo sapiens, UniProt P35408, S73A); assay: GloSensor cAMP assay, inhibition of constitutive activity; format: cell-based; conditions: for ΔpIC50: no PGE2, pIC50 mutant - pIC50 WT, mean
T2 construct: The full-length EP2 or EP4 was cloned into the pcDNA3.1 vector (Invitrogen), incorporating an N-terminal FLAG tag; expressed in transfected cells; host or cells: AD293
T2 sequence (P35408 whole entry S73A): as above
Procedure: (§1) The full-length EP2 or EP4 was cloned into the pcDNA3.1 vector (Invitrogen), incorporating an N-terminal FLAG tag. AD293 cells were seeded in six-well plates containing DMEM supplemented with 10% dialyzed FBS 1 day prior to transfection. Following overnight growth, cells were transfected with a 1:1 ratio of receptor construct and GloSensor22F cAMP biosensor (Promega) plasmids.
(§2) Twenty-four hours post-transfection, the cells were transferred to CO2-independent media containing 2% GloSensor cAMP Reagent (Promega) and distributed into 384-well assay plates at a density of 4000 cells per well in 10 μL. […] The plates were then incubated at 37 °C for an additional hour before luminescence measurements were taken using an EnVision plate reader.
(§3) Data analysis was performed using GraphPad Prism software v8.0.1. A nonlinear regression analysis, employing a sigmoidal dose–response model, was conducted to determine the Emax values and half-maximum inhibitory concentrations (IC50) for each compound tested.

EP4-L99M = molecular target: T3, EP4-L99M (Homo sapiens, UniProt P35408, L99M); assay: GloSensor cAMP assay, antagonism of PGE2-induced cAMP, chimeric studies; format: cell-based; conditions: for ΔpIC50: PGE2 induced, pIC50 mutant - pIC50 WT, mean
T3 construct: The full-length EP2 or EP4 was cloned into the pcDNA3.1 vector (Invitrogen), incorporating an N-terminal FLAG tag; expressed in transfected cells; host or cells: AD293
T3 sequence (P35408 whole entry L99M): as the sequence (P35408 whole entry S73A) above, with A73S, L99M counted along it
Procedure: as §1, §2, §3

EP4 = molecular target: EP4; design: method as in Nakao et al, 2007; conditions: [3H]-PGE2 binding assay; ref Nakao et al, 2007; cited from earlier work
EP2-L301I = molecular target: T4, EP2-L301I (Homo sapiens, UniProt P43116, L301I); assay: GloSensor cAMP assay, antagonism of PGE2-induced cAMP, chimeric studies; format: cell-based; conditions: single experiments 1st-3rd
T4 construct: The full-length EP2 or EP4 was cloned into the pcDNA3.1 vector; FLAG (N); expressed in transfected cells; host or cells: AD293 cells
T4 sequence (P43116 whole entry L301I): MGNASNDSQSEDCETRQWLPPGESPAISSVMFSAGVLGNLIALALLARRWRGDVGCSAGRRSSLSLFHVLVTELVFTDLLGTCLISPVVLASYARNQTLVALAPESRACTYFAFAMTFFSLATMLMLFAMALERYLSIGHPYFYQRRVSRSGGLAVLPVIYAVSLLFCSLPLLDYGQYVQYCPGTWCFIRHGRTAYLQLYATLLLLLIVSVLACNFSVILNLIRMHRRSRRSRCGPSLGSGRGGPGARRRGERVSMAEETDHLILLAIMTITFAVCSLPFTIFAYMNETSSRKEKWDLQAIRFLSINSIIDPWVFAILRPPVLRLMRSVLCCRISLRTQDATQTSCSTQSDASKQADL
Procedure: as §1, §2, §3

EP2 = tested on: EP2; design: method as in af Forselles et al, 2011; conditions: against PGE2-induced cAMP signaling in GloSensor cAMP assay; ref af Forselles et al, 2011; cited from earlier work

- IC50 (EP4 S73A): 5.62 nM
- remaining activity at 0.01 µM (EP4 S73A; 1 h, Grapiprant log([M]) -8, read-out: % cAMP activity (normalized to WT)): 11.4%
- remaining activity at 0.001 µM (EP4 S73A; 1 h, Grapiprant log([M]) -9, read-out: % cAMP activity (normalized to WT)): 21.5%
- remaining activity at 0.0001 µM (EP4 S73A; 1 h, Grapiprant log([M]) -10, read-out: % cAMP activity (normalized to WT)): 24.9%
- remaining activity at 10 pM (EP4 S73A; 1 h, Grapiprant log([M]) -11, read-out: % cAMP activity (normalized to WT)): 27.6%
- remaining activity at 1 pM (EP4 S73A; 1 h, Grapiprant log([M]) -12, read-out: % cAMP activity (normalized to WT)): 23.6%
- cAMP activity (∆pIC50 from EP4 WT) (EP4 S73A; Mean): 0.985
- cAMP activity (∆pIC50 from EP4 WT) (EP4 S73A; single experiments 1st-3rd): 1.017 and 1.087 and 0.851
- ΔpIC50 (EP4 S73A): 0.99 ± 0.07
- ΔpIC50 (EP4 S73A; listed as grapiprant): enhanced the antagonism
- IC50 [1]: 2.19 nM
- remaining activity at 10 µM ([1]; 1 h, Grapiprant log([M]) -5.00, EP4-S73A, read-out: % cAMP activity (normalized to WT)): 12.1%
- remaining activity at 1 µM ([1]; 1 h, Grapiprant log([M]) -6.00, EP4-S73A, read-out: % cAMP activity (normalized to WT)): 13.5%
- remaining activity at 0.1 µM ([1]; 1 h, Grapiprant log([M]) -7.00, EP4-S73A, read-out: % cAMP activity (normalized to WT)): 20.4%
- remaining activity at 0.01 µM ([1]; 1 h, Grapiprant log([M]) -8.00, EP4-S73A, read-out: % cAMP activity (normalized to WT)): 38.9%
- remaining activity at 0.001 µM ([1]; 1 h, Grapiprant log([M]) -9.00, EP4-S73A, read-out: % cAMP activity (normalized to WT)): 127%
- remaining activity at 1 pM ([1]; 1 h, Grapiprant log([M]) -12.00, EP4-S73A, read-out: % cAMP activity (normalized to WT)): 170%
- Grapiprant cAMP activity (∆pIC50 from EP4 WT), Mean ([1]; S73A, Mean): 0.215
- Grapiprant cAMP activity (∆pIC50 from EP4 WT) ([1]; S73A, single experiments 1st-3rd): 0.364 and 0.097 and 0.184
- ΔpIC50 [1]: 0.22 ± 0.08
- ΔpIC50 ([1]; listed as grapiprant): hardly influenced antagonistic potency
- remaining activity at 0.1 µM (EP4-L99M; 1 h, Grapiprant log([M]) -7, single experiments 1st-3rd, Fig. S7C, read-out: % cAMP activity (normalized to WT)): 52.4%
- remaining activity at 0.0001 µM (EP4-L99M; 1 h, Grapiprant log([M]) -10, single experiments 1st-3rd, Fig. S7C, read-out: % cAMP activity (normalized to WT)): 83.5%
- remaining activity at 1 pM (EP4-L99M; 1 h, Grapiprant log([M]) -12, single experiments 1st-3rd, Fig. S7C, read-out: % cAMP activity (normalized to WT)): 85.6%
- ΔpIC50 (EP4-L99M): -0.23 ± 0.07
SMILES: CCc1nc2c(C)nc(C)cc2n1-c1ccc(CCNC(=O)NS(=O)(=O)c2ccc(C)cc2)cc1 [Grapiprant]
- ΔpIC50 (EP4-L99M; listed as grapiprant): slightly decreased the antagonistic potency
- Ki (EP4): 13 nM

- remaining activity at 10 µM (EP2-L301I; 1 h, ligand log([M]) -5, Fig. S7B, read-out: % cAMP activity (normalized to WT)): 20%
- remaining activity at 1 µM (EP2-L301I; 1 h, ligand log([M]) -6, Fig. S7B, read-out: % cAMP activity (normalized to WT)): 51.7%
- remaining activity at 0.1 µM (EP2-L301I; 1 h, ligand log([M]) -7, Fig. S7B, read-out: % cAMP activity (normalized to WT)): 121%
- remaining activity at 0.01 µM (EP2-L301I; 1 h, ligand log([M]) -8, Fig. S7B, read-out: % cAMP activity (normalized to WT)): 112%
- remaining activity at 0.001 µM (EP2-L301I; 1 h, ligand log([M]) -9, Fig. S7B, read-out: % cAMP activity (normalized to WT)): 117%
- remaining activity at 0.0001 µM (EP2-L301I; 1 h, ligand log([M]) -10, Fig. S7B, read-out: % cAMP activity (normalized to WT)): 113%
- remaining activity at 1 pM (EP2-L301I; 1 h, ligand log([M]) -12, Fig. S7B, read-out: % cAMP activity (normalized to WT)): 108%
- cAMP activity (∆pIC50 from EP2 WT) (EP2-L301I; Appendix Fig. S7A): -1.743 and -1.549 and -1.608
SMILES: COc1ccc2cc(OCC3(C(=O)O)CN(C(=O)c4ccc(F)cc4)C3)ccc2c1 [PF-04418948]
- Kb (EP2): 1.8 nM
